The results in this text go back to patent publication US20180193321A1, “INDOLO[…]” (The Rockefeller University, priority 2015, published 2018).

Data set [1] can be described thus: Cytotoxicity / antiproliferative activity, crystal violet viability assay. The settings on record: human, HCT-116 colon carcinoma cells; HCT-116 cells, 3 days incubation, crystal violet absorbance at 590 nm relative to DMSO control, triplicate; read-out: IC50 (cytotoxicity against HCT-116). Type of data set: cell-based, human. On the procedure: (§1) Because known indolotryptolines are potent human cell line toxins, lazarimide C, novel compounds 6 and 7, as well as cladoniamide A as a control, were tested for cytotoxicity against HCT-116 human colon carcinoma cancer cells.
(§2) The compounds were tested for antiproliferative activity in triplicate using the colon carcinoma cell line HCT-116 (ATCC; CCL-247) [See Brattain et al., “Heterogeneity of malignant cells from a human colonic carcinoma.” Cancer Res. 41(5):1751-1756(1981), incorporated herein by reference in its entirety]. For assays, frozen HCT-116 cells were thawed and grown in McCoy's 5A Modified Medium (Gibco) supplemented with 10% (v/v) FBS. Cells were sub-cultured once, and then cells in log phase growth were harvested by trypsinization. Trypsinized cells were seeded into 96-well plates (1,000 cells/well) and incubated overnight at 37° C. in the presence of 5% CO2. Compounds 6, 7, lazarimide C and cladoniamide (10 mg/mL in DMSO) were sequentially diluted in culture media (2-fold dilution starting at 50 μg/mL) across a 96-well plate and 100 μL was transferred to the appropriate well in an assay plate. The plates were incubated at 37° C. for 3 days and then evaluated for viability using a crystal violet-based colorimetric assay [See Zivadinovic et al., “Membrane estrogen receptor-alpha levels in MCF-7 breast cancer cells predict cAMP and proliferation responses.” Breast Cancer Res. 7(1):R101-112 (2005)]. Cell viability was recorded based on the absorbance at 590 nm in compound treated well relative to DMSO control wells.

Data set [2] has as its system HCT-116 human colon carcinoma cancer cells. The data set is described as above. Type of data set: cell-based. The settings on record: HCT-116 cells, 3 days incubation, crystal violet absorbance at 590 nm relative to DMSO control, triplicate; read-out: IC50 (cytotoxicity against HCT-116). The procedure: as §1, §2

SMILES strings stand for the structures.

Consider `COc1c2n(c3cc(Cl)ccc13)[C@]1(O)C(=O)N(C)C(=O)[C@]1(O)c1c-2[nH]c2ccc(Cl)cc12` [Compound 6, lazarimide B], for which the IC50 at 3 days in data set [1] is 11.6 nM.

With `COc1c2n(c3cc(Cl)c(O)cc13)[C@]1(O)C(=O)N(C)C(=O)[C@]1(O)c1c-2[nH]c2ccc(Cl)cc12` [Compound 7, lazarimide A], the IC50 at 3 days in data set [1] is 8.4 nM. Consider `COc1c2n(c3ccccc13)[C@]1(O)C(=O)N(C)C(=O)[C@]1(O)c1c-2[nH]c2ccc(Cl)cc12` [cladoniamide A, reference compound], for which the IC50 in data set [2] came out at 40.4 nM. On to `CN1C(=O)[C@@]2(O)c3c([nH]c4cc(Cl)ccc34)-c3[nH]c4ccc(Cl)cc4c3[C@@]2(O)C1=O` [lazarimide C], for which, in data set [1], the IC50 at 3 days turned out to be 25800 nM.
